One compound from paper PMC9865752, “Design and Synthesis of (Z)-2-(Benzylamino)-5-benzylidenethiazol-4(5H)-one Derivatives as Tyrosinase Inhibitors and Their Anti-Melanogenic and Antioxidant Effects” (Molecules, 2023) can be followed below.

A short description of data set [1]: ABTS radical scavenging assay. Conditions: test samples 100 µM; 2 min in the dark. The method, then: An antioxidant assay using ABTS is also commonly used to assess the antioxidant activities of compounds. Donation of one electron from ABTS to potassium persulfate generates the ABTS radical cation. An ABTS radical scavenging activity assay was performed using 100 µM of BABT derivatives or Trolox (a positive reference control) by mixing test samples with ABTS radical cations obtained from a reaction of potassium persulfate and ABTS. ABTS radical scavenging activity was assessed by measuring the optical density at 734 nm after leaving the test sample–ABTS radical cation mixture in the dark for 2 min.
According to a previously described method, with minor modifications, the ABTS radical scavenging activities of BABT derivatives 1–14 were assessed. Briefly, an ABTS radical solution was prepared by mixing 10 mL of aqueous ABTS solution (7 mM) with 10 mL of potassium persulfate aqueous solution (2.45 mM), and the mixture was kept for 11–15 h in the dark at room temperature until the absorbance remained constant. Prior to the antioxidant assay experiments, the ABTS radical solution was diluted with water to adjust the absorbance at 734 nm to 0.70 ± 0.02. A 10 µL aliquot of BABT derivatives or Trolox at a concentration of 1000 µM was added to 90 µL of ABTS+ free radical solution in each well of a 96-well plate and incubated for 2 min in the dark at ambient temperature. The absorbance of each well was measured at 734 nm using a microplate reader (VersaMax; Molecular Devices). The ABTS+ radical scavenging activities of BABT derivatives were compared to those of Trolox. All experiments were carried out independently, thrice.

A further data set relates to B16F10 cells. The experiment in a line: Cell viability (EZ-Cytox assay). Type of data set: cell-based, murine. Conditions: 0, 1, 2, 5, 10, 20 µM, 72 h. The method, then: Before these experiments were performed, the influence of these derivatives on cytotoxicity in B16F10 cells was examined to determine their optimal concentration range for B16F10 cell experiments. The cytotoxicity of derivatives 7 and 8 at six concentrations (0, 1, 2, 5, 10, and 20 µM) was assessed using the EZ-Cytox assay.
Cytotoxicity assays in B16F10 cells were performed using the EZ-Cytox solution (EZ-3000, DoGenBio, Seoul, Republic of Korea). Briefly, B16F10 cells were seeded at a density of 1 × 10^4 cells per well and cultured at 37 °C in a 5% CO2 atmosphere for 24 h. […] Then, the EZ-Cytox solution (10 μL aliquot) was added to each well. After 2 h of incubation at 37 °C, the optical density of each well was measured at 450 nm using a microplate reader (VersaMax; Molecular Devices).

Data set [2] concerns the target T1, B16F10 cellular tyrosinase (Mus musculus, UniProt P11344).
T1 construct: host or cells: B16F10 murine melanoma cells
T1 sequence (P11344 19-533): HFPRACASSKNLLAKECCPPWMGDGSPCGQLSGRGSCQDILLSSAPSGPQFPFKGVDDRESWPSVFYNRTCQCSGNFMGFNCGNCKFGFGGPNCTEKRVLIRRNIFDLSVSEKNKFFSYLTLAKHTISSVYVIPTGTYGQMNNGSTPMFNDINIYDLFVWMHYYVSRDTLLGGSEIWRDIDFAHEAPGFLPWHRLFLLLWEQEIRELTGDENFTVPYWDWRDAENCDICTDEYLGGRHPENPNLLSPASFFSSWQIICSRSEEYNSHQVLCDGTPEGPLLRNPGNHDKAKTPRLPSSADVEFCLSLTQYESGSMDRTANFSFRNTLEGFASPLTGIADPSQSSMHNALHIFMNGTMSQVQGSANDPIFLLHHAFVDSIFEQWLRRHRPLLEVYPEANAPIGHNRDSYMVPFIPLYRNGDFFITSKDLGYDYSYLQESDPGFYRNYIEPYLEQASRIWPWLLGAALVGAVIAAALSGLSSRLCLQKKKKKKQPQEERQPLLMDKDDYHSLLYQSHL
The experiment in a line: Cellular anti-tyrosinase activity assay. Conditions: α-MSH plus IBMX stimulated B16F10 cells, 72 h. It is filed as cell-based, murine.
Method: Briefly, B16F10 cells were seeded at 1 × 10^5 cells/well in a 6-well plate and allowed to adhere to well bottoms for 24 h. […] Then, a stimulator (0.5 µM α-MSH plus 200 µM IBMX) was applied to increase the cellular tyrosinase activity, and the cells were cultured for 72 h under the conditions used for cell cultures. Cultured cells were washed twice with PBS and exposed to an aliquot (100 µL) of the lysis buffer solution containing 20% Triton X-100 (5 µL), 50 mM phosphate buffer (pH 6.5, 90 µL), and 2 mM phenylmethylsulfonyl fluoride (5 µL) to lyse the cultured cells for 30 min at −80 °C. After defrosting, the cell lysates were transferred to microcentrifuge tubes and centrifuged for 30 min at 4 °C and 12,000 rpm, and the supernatants (80 µL) in each well were mixed with 20 µL L-dopa (2 mg/mL) and incubated at 37 °C for 10 min. The absorbance of dopachrome was measured at 475 nm using a microplate reader (VersaMax; Molecular Devices).

The test system of the next data set is tyrosinase. The experiment in a line: Western blotting of tyrosinase protein expression. Type of data set: cell-based, murine. How it is done: We investigated whether, in addition to the direct inhibition of tyrosinase, another inhibitory mechanism of melanogenesis by derivative 8 may be related to the expression of proteins involved in melanogenesis. For the Western blotting experiment, B16F10 cells were treated with α-MSH (1 µM) plus IBMX (200 µM), leading to a 1.7- and 4.9-fold increase in expression levels of melanogenesis-associated proteins tyrosinase and MITF, compared to those in the untreated control (100%) (Figure 13).
B16F10 cells were seeded in a 60 mm dish at a density of 5 × 10^5 cells/mL for 24 h, washed with cold PBS, and harvested. Cytosolic and nuclear fractions of cell lysates were extracted using lysis buffer, as described previously. Protein concentrations in the cell lysates were estimated using the BCA protein assay (Pierce, Rockford, IL, USA). […] The membranes were washed and protein bands detected using the SuperSignal West Pico Chemiluminescence assay kit (Advansta, San Jose, CA, USA) and the Davinch–Chem program (Davinch-K, Seoul, Republic of Korea). Immunoblotting data were quantified using CS Analyzer 3.2 (Densitograph) image analysis software (http://www.attokorea.co.kr, accessed on 21 November 2022).

For the compound `O=C1N=C(NCc2ccccc2)S/C1=C\c1ccc(O)cc1O` [Compound 8, (Z)-2-(benzylamino)-5-(2,4-dihydroxybenzylidene)thiazol-4(5H)-one], the “ABTS radical scavenging activity, % inhibition” value in data set [1] turned out to be 96%. In addition, the cytotoxicity entry with B16F10 cells is given as “no cytotoxicity until 72 h at all tested concentrations”. Besides, the “inhibition of cellular tyrosinase activity (in words)” value in data set [2] (5 µM) is recorded as “more than that by kojic acid at 20 µM”. In data set [2] (20 µM), the “cellular tyrosinase activity compared to untreated control” value was 1.7 fold. For the same compound, the “relative expression level of tyrosinase protein” value in the data set with tyrosinase (10 µM, α-MSH plus IBMX treated B16F10 cells) was “lowered the protein expression to the same or lower control levels”; in the data set with tyrosinase (5, 10 and 20 µM, α-MSH (1 µM) plus IBMX (200 µM) treated B16F10 cells), “significantly reduced the relative expression levels of tyrosinase and MITF in a dose-dependent manner”.
